Assay results: patent US20240400572A1, “COMPOUNDS AND METHODS FOR TREATING CANCERS THAT ARE MGMT DEFICIENT REGARDLESS OF MMR STATUS” (Yale University, priority 2021, published 2024)
“Also recorded” adds a separate entry of the source.

How the values were obtained:
[1] = system: FANCD2 ubiquitination in LN229 MGMT+/−, MMR+/− cells; experiment: Western blot analysis of FANCD2 ubiquitination; assay type: cell-based, human
Protocol: FIGS. ZS9A-ZS9G. […] (FIG. ZS9A) Representative images of micronuclei identification. (FIG. ZS9B) Validation of micronuclei identification using olaparib as positive control. Change in percent cells with 1 micronuclei from baseline (DMSO control) after treatment with olaparib ([…]) for 48 h in LN229 MGMT+/−, MMR+/− cells. Columns, mean; error bars, SD; […] technical replicates; **** p<0.0001. […] (FIG. ZS9G) Western blot analysis of FANCD2 ubiquitination in LN229 MGMT+/−, MMR+/− cells and PD20 FANCD2-deficient cells, complemented with empty vector (FANCD2+EV), wildtype FANCD2 (PD20+FD2) or ubiquitination-mutant FANCD2 (PD20+KR). The % FANCD2 ubiquitination (% FANCD2 Ub.) is quantified as the background-corrected integrated band intensity of the upper band divided by the sum of the background-corrected integrated band intensities of the upper and lower bands. The fold change in % FANCD2 ubiquitination is presented for each cell line relative to DMSO-treated cells. Vinculin serves as loading control. For (FIG. ZS9D), (FIG. ZS9E), and (FIG. ZS9F), points, mean; error bars, SD; n=3 technical replicates.
Western Blotting. […] Where shown, bands were quantified using ImageJ software.

[2] = system: LN229 MGMT+/−, MMR+/− cells; experiment: Cell cycle analysis; assay type: cell-based, human; conditions: 20 μM, 24 to 48 h; cell status given in the value
Protocol: Cell Cycle Analysis. Cell cycle analysis was performed using integrated Hoechst nucleic acid dye fluorescence. Briefly, integrated Hoechst fluorescence intensity was log 2 transformed and histograms from DMSO-treated cells were used to identify the centers of the 2N and 4N DNA peaks. These values were used to normalize the 2N DNA peak to 1 and the 4N DNA peak to 2. Cells were then classified by normalized log 2 DNA content as GI (0.75-1.25), S (1.25-1.75), or G2 (1.75-2.5) phase cells. The percentage of cells within each phase of the cell cycle was determined for each treatment condition. The three sets of Hoechst-stained cells corresponding to the three separate DNA foci stains were treated as three independent analyses.

Structure (SMILES) | FANCD2 ubiquitination (in words) [1] | cell cycle arrest (in words) [2]
Cn1nnc2c(C(N)=O)ncn2c1=O [TMZ, temozolomide, reference compound] | induced FANCD2 ubiquitination but only in MGMT−/MMR+ cells | This effect in MGMT−/MMR− cells was absent; also recorded: moderate G2 arrest in MGMT+/MMR+ cells
NC(=O)c1ncn2c(=O)n(CCF)nnc12 [KL-50, 3-(2-fluoroethyl)-4-oxo-3H,4H-imidazo[4,3-d][1,2,3,5]tetrazine-8-carboxamide] | specifically in MGMT− cells | increasing G2 arrest on progression from 24 to 48 h in MGMT−/MMR+ cells; also recorded: attenuated G2 arrest in MGMT−/MMR− cells; also recorded: moderate G2 arrest in MGMT+/MMR+ cells
